As a reminder, the IC50 is the midpoint of a concentration-inhibition curve.

A value given as a limit tells only on which side of the number the result lay.

One assay deals with T1, human ENT1 (Homo sapiens, UniProt Q99808).
T1 construct: JAR cells expressing ENT1 were purchased from ATCC; host or cells: JAR cells
T1 sequence (Q99808 1-456): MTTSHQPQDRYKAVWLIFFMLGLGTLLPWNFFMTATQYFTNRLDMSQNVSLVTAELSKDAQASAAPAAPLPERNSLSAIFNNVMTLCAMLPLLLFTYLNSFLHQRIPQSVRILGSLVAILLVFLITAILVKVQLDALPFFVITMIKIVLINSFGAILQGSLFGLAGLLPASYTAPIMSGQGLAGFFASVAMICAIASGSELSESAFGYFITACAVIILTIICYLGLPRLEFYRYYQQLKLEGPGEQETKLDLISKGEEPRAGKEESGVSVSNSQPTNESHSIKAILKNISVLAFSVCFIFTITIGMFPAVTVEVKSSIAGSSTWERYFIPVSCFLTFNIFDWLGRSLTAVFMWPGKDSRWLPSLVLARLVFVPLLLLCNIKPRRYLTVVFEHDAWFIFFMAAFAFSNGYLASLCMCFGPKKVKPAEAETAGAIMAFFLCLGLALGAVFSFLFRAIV
Description: ENT1 binding assay (competition with Sahenta-DY647 on JAR cells). As to conditions: competition with SAHENTA-DY647 binding; IC50 categorized; read-out: Binding Assay IC50. In a few lines: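 Whole-cell competition on JAR cells (native ENT1): 50,000 cells pre-incubated 30 min at 4 °C with compound in HBSS/10 mM Hepes/0.1% BSA, then 100 nM Sahenta-DY647 added for 30 min at 4 °C. After washing, fluorescence (Ex 630/Em 670 nm) read; IC50 from sigmoidal fit, averaged as pIC50.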
`C[C@H]1O[C@@H](n2c(NC3CCOCC3)nc3c(OCc4ccc([N+](=O)[O-])cc4)ncnc32)[C@H](O)[C@@H]1O` [Compound 30]: the IC50 was less than 1 nM.

In the case of `C[C@H]1O[C@@H](n2c(NCCCO)nc3c(OCc4ccc([N+](=O)[O-])cc4)ncnc32)[C@H](O)[C@@H]1O` [Compound 22], the IC50 was in the range of 1 to 20 nM.

For the molecule `C[C@H]1O[C@@H](n2c(NC3CCCC3)nc3c(OCc4ccccc4)ncnc32)[C@H](O)[C@@H]1O` [Compound 5], the IC50 is 1 to 20 nM.

Take `O=[N+]([O-])c1ccc(CSc2ncnc3c2ncn3[C@@H]2O[C@H](CF)[C@@H](O)[C@H]2O)cc1` [Compound 159]: the IC50 was in the range of 1 to 20 nM.

As for `C[C@H]1O[C@@H](n2cnc3c(/C=C/c4ccc([N+](=O)[O-])cc4)ncnc32)[C@H](O)[C@@H]1O` [Compound 157], the IC50 lay within 1 to 20 nM.

Take `C[C@H]1O[C@@H](n2c(NC3CCCC3)nc3c(OCc4ccc(OC(F)F)cc4)ncnc32)[C@H](O)[C@@H]1O` [Compound 11]: the IC50 is less than 1 nM.

For the molecule `CC(C)Nc1nc2c(OCc3ccc([N+](=O)[O-])cc3)ncnc2n1[C@@H]1O[C@H](C)[C@@H](O)[C@H]1O` [Compound 25], the IC50 was less than 1 nM.

With `CC(=O)NC[C@H]1O[C@@H](n2cnc3c(SCc4ccc([N+](=O)[O-])cc4)ncnc32)[C@H](O)[C@@H]1O` [Compound 189], the IC50 lay within 20 to 500 nM.

Consider `C[C@H]1O[C@@H](n2cnc3c(OCc4cc(F)c(F)c(F)c4)ncnc32)[C@H](O)[C@@H]1O` [Compound 200], for which the IC50 was in the range of 20 to 500 nM.

Take `C[C@H]1O[C@@H](n2cnc3c(N4CCc5cc([N+](=O)[O-])ccc5C4)ncnc32)[C@H](O)[C@@H]1O` [Compound 196]: the IC50 was 20 to 500 nM.

Take `C[C@H]1O[C@@H](n2c(NC3CCC(O)C3)nc3c(OCc4ccc([N+](=O)[O-])cc4)ncnc32)[C@H](O)[C@@H]1O` (stereo partly drawn) [Compound 29]: the IC50 is less than 1 nM.

Consider `O=[N+]([O-])c1ccc(CCOc2ncnc3c2ncn3[C@@H]2O[C@H](COCCO)[C@@H](O)[C@H]2O)cc1` [Compound 203], for which the IC50 lay within 20 to 500 nM.

A further assay concerns stimulated primary human T cells. The experiment in a line: T cell proliferation assay, Condition A (X-VIVO15). The assay is classed as cell-based. As to conditions: Homo sapiens, T-cell, 96 h; Condition A: X-VIVO15 medium; anti-CD3/anti-CD28 beads, ATP, 4 days; CFSE-lo T cells. The method, then:
(§1) The goal of this study was to determine the potency of ENT1 inhibitors by measuring the rescued proliferation of stimulated primary human T cells incubated in the presence of 100 uM Adenosine triphosphate (ATP), in baseline conditions (condition A) or in the presence of various proteins known to bind small molecules (condition B).
(§2) Venous blood from healthy volunteers, all of whom signed an informed consent approved by the Ethics Committee (FOR—UIC—BV-050-01-01 ICF_HBS_HD Version 5.0), was obtained by ImmuneHealth (Centre Hospitalier Universitaire Tivoli, La Louviere, Belgium). Mononuclear cells were collected by density gradient centrifugation, using SepMate-50 tubes (StemCell Technologies, Grenoble, France) and Lymphoprep (Stemcell Technologies) according to the manufacturer's instructions. CD3+ T cells were isolated by immunomagnetic negative selection, using the EasySep Human T Cell Isolation Kit (StemCell Technologies) as per the manufacturer's instructions. CD3+ T cells were stored in heat inactivated FBS (hiFBS; Gibco, ThermoFisher Scientific, Merelbeke, Belgium) and 10% DMSO in liquid nitrogen.
(§3) Purified human CD3+ T cells were thawed and washed once with RPMI1640 medium, UltraGlutamine (Lonza, Verviers, Belgium) containing 10% hiFBS. Cells were resuspended in PBS containing 10% hiFBS at 1×10^7 cells/ml. One volume of cells was combined with a matching volume of 2 μM CFSE solution in PBS, mixed well by pipetting, and incubated at room temperature for 5 minutes under rotation and protected from light. Excess CFSE was quenched by addition of PBS containing 10% hiFBS, and the cells were centrifuged (300×rcf, 7 minutes) and resuspended in X-VIVO15. Cells were again centrifuged and resuspended in X-VIVO15 for counting.
(§4) Cells were resuspended at 1.6×10^6 cells/mL in X-VIVO15 medium (Condition A) or X-VIVO15 medium containing 4% (v/v) HSA (Sigma-Aldrich, Diegem, Belgium) and 0.2% (v/v) ai-Acid Glycoprotein (Sigma-Aldrich, Diegem, Belgium) (Condition B).
(§5) […] of cell suspension (2×10^4 cells) was added to wells of sterile flat-bottom 384-well plates. Cells were activated by adding […] of anti-CD3 anti-CD28 coated microbeads (Dynabeads human T-activator CD3/CD28; Life Technologies, Paisley, UK) suspended in X-VIVO15 medium or X-VIVO15 medium containing 4% (v/v) HSA and 0.2% (v/v) ai-Acid Glycoprotein at a ratio of one microbead per two cells. Serial dilutions of the ENT1 inhibitors were conducted in X-VIVO15 medium and […] of the diluent was added to the wells. Cells were mixed by pipetting up and down and pre-incubated for 30 minutes in a 37° C. humidified tissue culture incubator with 5% CO2. After pre-incubation, cells were cultured in the presence or absence of ATP (Sigma-Aldrich) at a final concentration of […]. The final well volume was 50 μl in all cases. Experiments were performed in biological duplicates. Cells were mixed by pipetting up and down and incubated for 4 days in a 37° C. humidified tissue culture incubator with 5% CO2.
(§6) Samples were run on a BD LSR Fortessa FACS machine (BD FACSDiva Software v9.0.1). Data were analyzed using FlowJo (BD, v10.7.1). T cell proliferation was determined by measuring the frequency of ‘CFSE^lo’ (i.e. CFSE-diluted).
(§7) T cell proliferation data were analyzed using FlowJo software (Version 10.6.2). Dead cells and cellular debris were excluded on the basis of forward and side scatter profile and singlet cells were selected for further analysis.
(§8) T cell proliferation was determined based on the percent CFSE^lo total T cells for each condition. The data were plotted on the y-axis against log molar (M) concentration of ENT1 inhibitors on the x-axis in GraphPad Prism (version 9.0.0). IC50 and IC90 values were generated with the ‘log(agonist) vs. response—Find ECanything(F))’ function with F constrained to 50 or 90, respectively. pICF values were generated by taking the −logECF values.
The molecule `C[C@H]1O[C@@H](n2c(NC3CCOCC3)nc3c(OCc4ccc([N+](=O)[O-])cc4)ncnc32)[C@H](O)[C@@H]1O` [Compound 30] displayed an IC50 of less than 1 nM.

Molecule `C[C@H]1O[C@@H](n2c(NCCCO)nc3c(OCc4ccc([N+](=O)[O-])cc4)ncnc32)[C@H](O)[C@@H]1O` [Compound 22] had an IC50 of 1 to 20 nM.

In turn, `C[C@H]1O[C@@H](n2c(NC3CCCC3)nc3c(OCc4ccccc4)ncnc32)[C@H](O)[C@@H]1O` [Compound 5] displayed an IC50 of 1 to 20 nM.

As for `O=[N+]([O-])c1ccc(CSc2ncnc3c2ncn3[C@@H]2O[C@H](CF)[C@@H](O)[C@H]2O)cc1` [Compound 159], the IC50 lay in the range of 1 to 20 nM.

Regarding `C[C@H]1O[C@@H](n2cnc3c(/C=C/c4ccc([N+](=O)[O-])cc4)ncnc32)[C@H](O)[C@@H]1O` [Compound 157], the IC50 is less than 1 nM.

For `C[C@H]1O[C@@H](n2c(NC3CCCC3)nc3c(OCc4ccc(OC(F)F)cc4)ncnc32)[C@H](O)[C@@H]1O` [Compound 11], the IC50 was less than 1 nM.

Molecule `CC(C)Nc1nc2c(OCc3ccc([N+](=O)[O-])cc3)ncnc2n1[C@@H]1O[C@H](C)[C@@H](O)[C@H]1O` [Compound 25] showed an IC50 of less than 1 nM.

`CC(=O)NC[C@H]1O[C@@H](n2cnc3c(SCc4ccc([N+](=O)[O-])cc4)ncnc32)[C@H](O)[C@@H]1O` [Compound 189] gave an IC50 of 1 to 20 nM.

With `C[C@H]1O[C@@H](n2cnc3c(OCc4cc(F)c(F)c(F)c4)ncnc32)[C@H](O)[C@@H]1O` [Compound 200], the IC50 lay in the range of 1 to 20 nM.

In turn, `C[C@H]1O[C@@H](n2cnc3c(N4CCc5cc([N+](=O)[O-])ccc5C4)ncnc32)[C@H](O)[C@@H]1O` [Compound 196] showed an IC50 of 1 to 20 nM.

The molecule `C[C@H]1O[C@@H](n2c(NC3CCC(O)C3)nc3c(OCc4ccc([N+](=O)[O-])cc4)ncnc32)[C@H](O)[C@@H]1O` (stereo partly drawn) [Compound 29] displayed an IC50 of less than 1 nM.

Turning to `O=[N+]([O-])c1ccc(CCOc2ncnc3c2ncn3[C@@H]2O[C@H](COCCO)[C@@H](O)[C@H]2O)cc1` [Compound 203], the IC50 fell in the range of 1 to 20 nM.

A further assay shares this test system. Description: T cell proliferation assay, Condition B (X-VIVO15, 2% HSA and 0.1% AAG). As to conditions: Homo sapiens, T-cell, 96 h; Condition B: X-VIVO15 medium containing HSA and α1-Acid Glycoprotein; anti-CD3/anti-CD28 beads, ATP, 4 days; CFSE-lo T cells. The assay is classed as cell-based. The method, then:
as §1
Condition B: X-VIVO15, 2% Human Serum Albumin (HSA) and 0.1% α-1-Acid Glycoprotein (AAG)
as §2, §3, §4, §5, §6, §7, §8
`C[C@H]1O[C@@H](n2c(NC3CCOCC3)nc3c(OCc4ccc([N+](=O)[O-])cc4)ncnc32)[C@H](O)[C@@H]1O` [Compound 30] showed an IC50 of 1 to 20 nM.

`C[C@H]1O[C@@H](n2c(NCCCO)nc3c(OCc4ccc([N+](=O)[O-])cc4)ncnc32)[C@H](O)[C@@H]1O` [Compound 22] yielded an IC50 of 20 to 500 nM.

`C[C@H]1O[C@@H](n2c(NC3CCCC3)nc3c(OCc4ccccc4)ncnc32)[C@H](O)[C@@H]1O` [Compound 5] had an IC50 of 20 to 500 nM.

Take `O=[N+]([O-])c1ccc(CSc2ncnc3c2ncn3[C@@H]2O[C@H](CF)[C@@H](O)[C@H]2O)cc1` [Compound 159]: the IC50 was greater than 500 nM.

The molecule `C[C@H]1O[C@@H](n2cnc3c(/C=C/c4ccc([N+](=O)[O-])cc4)ncnc32)[C@H](O)[C@@H]1O` [Compound 157] showed an IC50 of 20 to 500 nM.

In the case of `C[C@H]1O[C@@H](n2c(NC3CCCC3)nc3c(OCc4ccc(OC(F)F)cc4)ncnc32)[C@H](O)[C@@H]1O` [Compound 11], the IC50 was in the range of 1 to 20 nM.

In the case of `CC(C)Nc1nc2c(OCc3ccc([N+](=O)[O-])cc3)ncnc2n1[C@@H]1O[C@H](C)[C@@H](O)[C@H]1O` [Compound 25], the IC50 lay within 1 to 20 nM.

Molecule `CC(=O)NC[C@H]1O[C@@H](n2cnc3c(SCc4ccc([N+](=O)[O-])cc4)ncnc32)[C@H](O)[C@@H]1O` [Compound 189] came in with an IC50 greater than 500 nM.

Regarding `C[C@H]1O[C@@H](n2cnc3c(OCc4cc(F)c(F)c(F)c4)ncnc32)[C@H](O)[C@@H]1O` [Compound 200], the IC50 is greater than 500 nM.

Molecule `C[C@H]1O[C@@H](n2cnc3c(N4CCc5cc([N+](=O)[O-])ccc5C4)ncnc32)[C@H](O)[C@@H]1O` [Compound 196] gave an IC50 greater than 500 nM.

For `C[C@H]1O[C@@H](n2c(NC3CCC(O)C3)nc3c(OCc4ccc([N+](=O)[O-])cc4)ncnc32)[C@H](O)[C@@H]1O` (stereo partly drawn) [Compound 29], the IC50 lay in the range of 1 to 20 nM.

As to `O=[N+]([O-])c1ccc(CCOc2ncnc3c2ncn3[C@@H]2O[C@H](COCCO)[C@@H](O)[C@H]2O)cc1` [Compound 203], the IC50 was greater than 500 nM.

These data come from US20260184712A1, “Heterocyclic Compounds as ENT Inhibitors and Compounds for Use in the Treatment of Cancers” (iTeos Belgium SA, priority 2022, published 2026).
